Reference: paper PMC11851430, “Workflow for E3 Ligase Ligand Validation for PROTAC Development” (ACS Chemical Biology, 2025)

Key:
Assay in all cases: DSF assay
Type in all cases: binding
Conditions in all cases: 20 µM compound
PCTK1A = molecular target: T1, PCTK1A (Homo sapiens, UniProt Q00536)
T1 construct: purchased in-house DSF panel (SGC-style construct names; the trailing A/B is a construct suffix)

MAPK6 = molecular target: T2, MAPK6 (Homo sapiens, UniProt Q16659)
T2 construct: purchased in-house DSF panel (SGC-style construct names; the trailing A/B is a construct suffix)

VRK1A = molecular target: T3, VRK1A (Homo sapiens, UniProt Q99986)
T3 construct: purchased in-house DSF panel (SGC-style construct names; the trailing A/B is a construct suffix)
T3 sequence (Q99986 1-396): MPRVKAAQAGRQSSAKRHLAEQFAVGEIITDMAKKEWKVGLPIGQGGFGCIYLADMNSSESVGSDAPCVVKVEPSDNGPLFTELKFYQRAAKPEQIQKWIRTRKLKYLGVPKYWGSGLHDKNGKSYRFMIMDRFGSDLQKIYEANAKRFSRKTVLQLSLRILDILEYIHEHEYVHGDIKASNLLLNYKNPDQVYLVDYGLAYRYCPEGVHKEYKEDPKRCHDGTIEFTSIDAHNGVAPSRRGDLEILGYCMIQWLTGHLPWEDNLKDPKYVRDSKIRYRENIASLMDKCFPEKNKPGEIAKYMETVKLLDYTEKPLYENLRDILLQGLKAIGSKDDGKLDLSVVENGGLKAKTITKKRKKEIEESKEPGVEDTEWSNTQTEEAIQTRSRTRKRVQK

MERTKA = molecular target: T4, MERTKA (Homo sapiens, UniProt Q12866)
T4 construct: purchased in-house DSF panel (SGC-style construct names; the trailing A/B is a construct suffix)
T4 sequence (Q12866 574-864): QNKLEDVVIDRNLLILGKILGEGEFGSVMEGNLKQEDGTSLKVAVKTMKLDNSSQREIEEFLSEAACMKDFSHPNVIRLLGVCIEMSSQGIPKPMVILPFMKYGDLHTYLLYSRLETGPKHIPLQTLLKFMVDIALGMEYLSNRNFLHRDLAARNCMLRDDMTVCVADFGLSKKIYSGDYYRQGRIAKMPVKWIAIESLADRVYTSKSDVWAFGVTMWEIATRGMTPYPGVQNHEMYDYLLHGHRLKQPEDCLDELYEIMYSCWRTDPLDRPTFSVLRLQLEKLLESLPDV

STK10A = molecular target: T5, STK10A (Homo sapiens, UniProt O94804)
T5 construct: purchased in-house DSF panel (SGC-style construct names; the trailing A/B is a construct suffix)

MAPK13A = molecular target: T6, MAPK13A (Homo sapiens, UniProt O15264)
T6 construct: purchased in-house DSF panel (SGC-style construct names; the trailing A/B is a construct suffix)
T6 sequence (O15264 1-365): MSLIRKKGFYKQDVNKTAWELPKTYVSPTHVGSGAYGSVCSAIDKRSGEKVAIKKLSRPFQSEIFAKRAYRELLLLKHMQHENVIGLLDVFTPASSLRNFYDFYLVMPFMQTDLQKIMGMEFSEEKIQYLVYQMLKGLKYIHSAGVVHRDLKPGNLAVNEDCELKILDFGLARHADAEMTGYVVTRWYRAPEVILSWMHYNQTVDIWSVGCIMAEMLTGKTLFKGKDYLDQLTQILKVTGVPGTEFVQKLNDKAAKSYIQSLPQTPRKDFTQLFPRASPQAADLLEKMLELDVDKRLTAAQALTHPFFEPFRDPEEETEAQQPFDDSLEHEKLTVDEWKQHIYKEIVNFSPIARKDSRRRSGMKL

MAPKAPK2A = molecular target: T7, MAPKAPK2A (Homo sapiens, UniProt P49137)
T7 construct: purchased in-house DSF panel (SGC-style construct names; the trailing A/B is a construct suffix)

STK39A = molecular target: T8, STK39A (Homo sapiens, UniProt Q9UEW8)
T8 construct: purchased in-house DSF panel (SGC-style construct names; the trailing A/B is a construct suffix)

T5 sequence (O94804 18-317): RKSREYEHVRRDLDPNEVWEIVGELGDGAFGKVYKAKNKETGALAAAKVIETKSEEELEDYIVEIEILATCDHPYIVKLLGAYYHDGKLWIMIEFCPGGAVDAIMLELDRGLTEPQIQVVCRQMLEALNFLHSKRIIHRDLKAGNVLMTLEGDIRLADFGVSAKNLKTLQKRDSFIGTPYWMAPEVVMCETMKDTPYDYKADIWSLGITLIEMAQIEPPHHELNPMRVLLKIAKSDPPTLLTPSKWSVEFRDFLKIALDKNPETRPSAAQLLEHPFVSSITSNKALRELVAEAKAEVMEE
T1 sequence (Q00536 163-478): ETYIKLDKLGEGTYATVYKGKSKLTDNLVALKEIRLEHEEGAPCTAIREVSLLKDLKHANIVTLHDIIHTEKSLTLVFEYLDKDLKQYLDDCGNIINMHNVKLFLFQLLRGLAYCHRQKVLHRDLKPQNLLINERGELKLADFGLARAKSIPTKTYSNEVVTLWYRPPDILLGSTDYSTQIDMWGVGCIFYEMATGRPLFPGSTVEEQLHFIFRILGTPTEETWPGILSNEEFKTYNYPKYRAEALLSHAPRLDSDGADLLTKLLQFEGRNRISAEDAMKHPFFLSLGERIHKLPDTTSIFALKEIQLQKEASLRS
T7 sequence (P49137 64-325): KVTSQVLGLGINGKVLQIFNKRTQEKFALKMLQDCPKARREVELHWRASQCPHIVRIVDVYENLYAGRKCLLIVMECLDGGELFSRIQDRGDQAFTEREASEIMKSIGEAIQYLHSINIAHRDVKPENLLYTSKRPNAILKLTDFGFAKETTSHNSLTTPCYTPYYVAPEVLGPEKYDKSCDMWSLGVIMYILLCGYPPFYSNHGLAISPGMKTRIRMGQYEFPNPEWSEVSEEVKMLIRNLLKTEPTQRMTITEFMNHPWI
T2 sequence (Q16659 9-327): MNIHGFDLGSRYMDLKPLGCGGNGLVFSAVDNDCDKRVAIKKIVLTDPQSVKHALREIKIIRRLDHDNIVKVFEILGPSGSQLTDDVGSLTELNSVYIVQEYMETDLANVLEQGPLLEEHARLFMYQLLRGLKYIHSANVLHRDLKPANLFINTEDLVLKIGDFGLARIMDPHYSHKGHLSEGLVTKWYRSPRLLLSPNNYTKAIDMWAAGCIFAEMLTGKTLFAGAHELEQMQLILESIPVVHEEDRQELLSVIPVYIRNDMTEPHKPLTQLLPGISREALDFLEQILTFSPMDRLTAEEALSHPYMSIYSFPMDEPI

ΔTm at 20 µM (PCTK1A) [°C]	ΔTm at 20 µM (MAPK6) [°C]	ΔTm at 20 µM (VRK1A) [°C]	ΔTm at 20 µM (MERTKA) [°C]	ΔTm at 20 µM (STK10A) [°C]	ΔTm at 20 µM (MAPK13A) [°C]	ΔTm at 20 µM (MAPKAPK2A) [°C]	ΔTm at 20 µM (STK39A) [°C]	SMILES
4.55	-0.18	0.29	4.52	11.8	3.4	0.42	6.22	CC(C)(C)OC(=O)NCCOCCOCCOCCOCCC(=O)N1CCN(c2cc(Nc3cc(C4CC4)[nH]n3)nc(Nc3ccc(CC#N)cc3)n2)CC1 [4-L]
4.53	0.51	0.51	2.15	7.84	3.98	0.95	6.54	CC(C)(C)OC(=O)NCCCOCCOCCOCCCNC(=O)c1cc(Nc2cc(C3CC3)[nH]n2)nc(Nc2ccc(CC#N)cc2)n1 [5-L]
5.96	-0.45	0.7	2.06	9.37	3.76	0.53	5.53	CCOC(=O)c1cc(Nc2cc(C3CC3)[nH]n2)nc(Nc2ccc(CC#N)cc2)n1 [compound 5]
